Experimental data: article PMC10338470, “Phase 1 study of GSK3368715, a type I PRMT inhibitor, in patients with advanced solid tumors” (British Journal of Cancer, 2023)

How the values were obtained:
[1] = Safety margins of starting dose from toxicity studies in dogs; type: in vivo; details: 50 mg starting dose
protein SDMA = assay: Protein SDMA in formalin-fixed paired tumor biopsies; type: in vivo, human
[2] = test system: advanced-stage solid tumors; assay: Best overall response per RECIST 1.1; type: in vivo, human
Experimental: Adverse events were coded using the standard MedDRA groupings and graded according to NCI-CTCAE version 5.0. Clinical chemistry, urinalysis, and coagulation tests were performed predose on days 1, 8, 15, 22, and weekly thereafter. Tumor imaging occurred every 8 weeks until week 33, and then every 16 weeks thereafter. Adverse events and DLTs were summarized descriptively by dose cohort. Pharmacokinetic parameters of GSK3368715 and its metabolites (GSK3963583 and GSK3983164) were estimated in the PK/PD population (all participants for whom a PK sample was obtained) using a noncompartmental analysis model (WinNonlin version 8.1) and summarized descriptively. Best overall response as per RECIST 1.1 was summarized descriptively by dose cohort. Levels of tumor cell and plasma pharmacodynamic biomarkers were also summarized descriptively.

global ADMA levels = test system: global ADMA levels; design: method as in PMID 31257072; details: preclinical cancer models ref [6]; cited from earlier work
[3] = Plasma pharmacokinetics (LC-MS-MS, noncompartmental analysis); type: in vivo, human; details: for AUC0-24, geometric mean (%CVb) / Cmax, geometric mean (%CVb) / t1/2, geometric mean (%CVb) / tmax, median (range): plasma
Experimental: In both the dose-escalation and PK/PD cohorts, plasma samples for PK analysis were obtained following dosing on day 1 and pre- and postdose on days 2, 3, 4, 8, 15, 16, 22, and predose every 4 weeks thereafter. Plasma concentrations for GSK3368715 and its metabolites (GSK3963583, GSK3983164, and GSK3510519) were quantified using a validated ultra high-performance liquid chromatography-mass spectrometry-mass spectrometry (LC-MS-MS) method. PK parameters were analyzed using noncompartmental methods.
Adverse events and DLTs were summarized descriptively by dose cohort. Pharmacokinetic parameters of GSK3368715 and its metabolites (GSK3963583 and GSK3983164) were estimated in the PK/PD population (all participants for whom a PK sample was obtained) using a noncompartmental analysis model (WinNonlin version 8.1) and summarized descriptively. Best overall response as per RECIST 1.1 was summarized descriptively by dose cohort. Levels of tumor cell and plasma pharmacodynamic biomarkers were also summarized descriptively.

[4] = in vivo; cited from earlier work
lymphomas = test system: lymphomas; design: method as in PMID 31257072; details: lymphomas ref [6]; cited from earlier work
[5] = test system: ADMA-R225-hnRNP-A1 in tumor biopsies; assay: Tumor biopsy ADMA-R225-hnRNP-A1 by IHC (formalin-fixed); type: in vivo, human; details: 100-mg dose level, day 15; in 4/8 patients
Experimental: Tumor cell and plasma target engagement PD biomarkers were assessed in the dose-escalation cohort on days 1, 8, 15, and 22. In the PK/PD cohort, urine for PK and metabolite profiling was collected postdose on day 1 and through 48 h postdose on day 2, and for 24 h postdose on day 15. Participants underwent an on-treatment tumor biopsy on day 15. Asymmetric arginine 225 (R225) methylation of heterogeneous nuclear ribonucleoprotein A1 (hnRNP-A1) was identified as a target engagement PD of type I PRMT inhibition; treatment with GSK3368715 results in the reduction of asymmetric dimethylarginine 225 (ADMA-R225) on hnRNP-A1 protein in cancer cell lines and peripheral blood mononuclear cells (PBMCs). Noto et al. describe in detail the identification of hnRNP-A1 as a pharmacodynamic biomarker of type I PRMT inhibition, and the development of novel methodologies to accurately and precisely quantitate changes in the levels of ADMA on hnRNP-A1 in both blood and tumor compartments. Levels of ADMA-R225-hnRNP-A1 were measured in fresh frozen and formalin-fixed paired biopsies by liquid chromatography-mass spectrometry (LC-MS) and immunohistochemistry (IHC).

[6] = GSK3368715 50-mg dose escalation cohort, Day 1
[7] = GSK3368715 50-mg dose escalation cohort, Day 15
[8] = GSK3368715 100-mg PK/PD cohort, Day 1
[9] = GSK3368715 100-mg PK/PD cohort, Day 15
[10] = GSK3368715 100-mg dose escalation cohort, Day 1
[11] = GSK3368715 100-mg dose escalation cohort, Day 15
[12] = GSK3368715 100-mg total, Day 15

CCOCC1(COCC)CCC(c2[nH]ncc2CN(C)CCNC)CC1 [GSK3368715]
Safety margin for the steady state AUC [1]: 16 fold | Safety margin for the steady state Cmax [1]: 33 fold | Patients with increased protein SDMA in formalin-fixed paired biopsies (protein SDMA; 7/8 patients): 88% | Median increase of protein SDMA in formalin-fixed paired biopsies (protein SDMA; range −28 to 155%): 48.9% | Best response: Complete response ([2]; 50 mg (n = 3)): 0 n (%) | Best response: Missing ([2]; 50 mg (n = 3)): 0 n (%) | Best response: Not evaluable ([2]; 50 mg (n = 3)): 1 (33) n (%) | Best response: Partial response ([2]; 50 mg (n = 3)): 0 n (%) | Best response: Progressive disease ([2]; 50 mg (n = 3)): 2 (67) n (%) | Best response: Stable disease ([2]; 50 mg (n = 3)): 0 n (%) | Overall response rate: Complete response + partial response ([2]; 50 mg (n = 3)): 0 n (%) | Best response: Complete response ([2]; 100 mg (n = 16)): 0 n (%) | Best response: Missing ([2]; 100 mg (n = 16)): 0 n (%) | Best response: Not evaluable ([2]; 100 mg (n = 16)): 0 n (%) | Best response: Partial response ([2]; 100 mg (n = 16)): 0 n (%) | Best response: Progressive disease ([2]; 100 mg (n = 16)): 10 (63) n (%) | Best response: Stable disease ([2]; 100 mg (n = 16)): 6 (38) n (%) | Overall response rate: Complete response + partial response ([2]; 100 mg (n = 16)): 0 n (%) | Best response: Complete response ([2]; 200 mg (n = 12)): 0 n (%) | Best response: Missing ([2]; 200 mg (n = 12)): 3 (25) n (%) | Best response: Not evaluable ([2]; 200 mg (n = 12)): 0 n (%) | Best response: Partial response ([2]; 200 mg (n = 12)): 0 n (%) | Best response: Progressive disease ([2]; 200 mg (n = 12)): 6 (50) n (%) | Best response: Stable disease ([2]; 200 mg (n = 12)): 3 (25) n (%) | Overall response rate: Complete response + partial response ([2]; 200 mg (n = 12)): 0 n (%) | Patients with stable disease among patients with MTAP gene deletion ([2]; 6 patients with MTAP gene deletion): 2 | Patients with progressive disease among patients with MTAP gene deletion ([2]; 6 patients with MTAP gene deletion, treatment exposure 15 days to 37 days): 4 | Best response: Complete response ([2]; Total (N = 31)): 0 n (%) | Best response: Missing ([2]; Total (N = 31)): 3 (10) n (%) | Best response: Not evaluable ([2]; Total (N = 31)): 1 (3) n (%) | Best response: Partial response ([2]; Total (N = 31)): 0 n (%) | Best response: Progressive disease ([2]; Total (N = 31)): 18 (58) n (%) | Best response: Stable disease ([2]; Total (N = 31)): 9 (29) n (%) | Disease stability, patients ([2]; all dose groups): 29% | Time of maximal decreases in global ADMA levels (global ADMA levels): 72 h | Increase of Cmax and AUC0−24 with dose ([3]; dose range studied (50-200 mg)): dose proportional | PK variability (%CVb) ([3]; in vivo): high PK variability | AUC0-24, geometric mean (%CVb) ([3]; GSK3368715 200 mg, Day 1): 1274.7 (43.8) h•ng/mL | Cmax, geometric mean (%CVb) ([3]; GSK3368715 200 mg, Day 1): 336.8 (72.6) ng/mL | t1/2, geometric mean (%CVb) ([3]; GSK3368715 200 mg, Day 1): 15.9 h | tmax, median (range) ([3]; GSK3368715 200 mg, Day 1): 1.1 (0.4, 3.1) h | AUC0-24, geometric mean (%CVb) ([3]; GSK3368715 200 mg, Day 15): 4861.4 (45.3) h•ng/mL | Cmax, geometric mean (%CVb) ([3]; GSK3368715 200 mg, Day 15): 729.2 (42.8) ng/mL | t1/2, geometric mean (%CVb) ([3]; GSK3368715 200 mg, Day 15): 2.9 (43.5) h | tmax, median (range) ([3]; GSK3368715 200 mg, Day 15): 1.0 (0.5, 3.1) h | AUC0-24, geometric mean (%CVb) [3, 6]: 259.5 (--) h•ng/mL | Cmax, geometric mean (%CVb) [3, 6]: 107.2 (48.8) ng/mL | tmax, median (range) [3, 6]: 0.28 (0.25, 1.1) h | AUC0-24, geometric mean (%CVb) [3, 7]: 581.9 (101.4) h•ng/mL | Cmax, geometric mean (%CVb) [3, 7]: 111.9 (48.5) ng/mL | tmax, median (range) [3, 7]: 3.0 (0.5, 3.1) h | AUC0-24, geometric mean (%CVb) [3, 8]: 937.6 (30.9) h•ng/mL | Cmax, geometric mean (%CVb) [3, 8]: 237.6 (62.3) ng/mL | t1/2, geometric mean (%CVb) [3, 8]: 8.8 (--) h | tmax, median (range) [3, 8]: 0.5 (0.3, 3.1) h | AUC0-24, geometric mean (%CVb) [3, 9]: 1628.8 (60.4) h•ng/mL | Cmax, geometric mean (%CVb) [3, 9]: 382.7 (67.4) ng/mL | t1/2, geometric mean (%CVb) [3, 9]: 1.4 (--) h | tmax, median (range) [3, 9]: 1.0 (0.5, 2.1) h | AUC0-24, geometric mean (%CVb) [3, 10]: 1020.7 (26.7) h•ng/mL | Cmax, geometric mean (%CVb) [3, 10]: 145.0 (207.3) ng/mL | t1/2, geometric mean (%CVb) [3, 10]: 7.2 (--) h | tmax, median (range) [3, 10]: 0.5 (0.3, 3.1) h | AUC0-24, geometric mean (%CVb) [3, 11]: 1479.6 (79.7) h•ng/mL | Cmax, geometric mean (%CVb) [3, 11]: 362.9 (115.9) ng/mL | t1/2, geometric mean (%CVb) [3, 11]: 1.8 (--) h | tmax, median (range) [3, 11]: 0.9 (0.5, 1.1) h | AUC0-24, geometric mean (%CVb) ([3]; GSK3368715 100-mg total, Day 1): 972.3 (27.1) h•ng/mL | Cmax, geometric mean (%CVb) ([3]; GSK3368715 100-mg total, Day 1): 197.4 (112.1) ng/mL | t1/2, geometric mean (%CVb) ([3]; GSK3368715 100-mg total, Day 1): 7.9 h | tmax, median (range) ([3]; GSK3368715 100-mg total, Day 1): 0.5 (0.3, 3.1) h | AUC0-24, geometric mean (%CVb) [3, 12]: 1573.8 (64.2) h•ng/mL | Cmax, geometric mean (%CVb) [3, 12]: 375.5 (79.9) ng/mL | t1/2, geometric mean (%CVb) [3, 12]: 1.6 (15.6) h | tmax, median (range) [3, 12]: 0.9 (0.5, 2.1) h | TEEs reported in preclinical models [4]: no TEEs | Cell lines with cytotoxic responses (lymphomas): 56% | Mean reduction of ADMA-hnRNP-A1 in tumor biopsies by IHC (SE 9.36) [5]: 2.08%
